Test results published in US20040110802A1, “Antibacterial benzoic acid derivatives” (priority 2002, published 2004).
In brackets after ≈: the same amount, converted by molar mass.

Test system: SAUR 9218
Experiment: MIC Test Method, standard agar dilution
Assay type: cell-based
Conditions: agar dilution, Mueller Hinton agar, incubated overnight at 35° C.; lowest concentration that inhibits visible growth; read-out: SAUR 9218 MIC
Procedure, shortened: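 Agar dilution in Mueller Hinton agar with serial 2-fold compound dilutions. Staphylococcus aureus strain 9218 spotted at approximately 10^4 to 10^5 cells per spot, incubated overnight at 35 °C; MIC (μg/ml) is the lowest concentration preventing visible growth.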

SMILES	MIC [µg/mL]
N#Cc1ccc(NC(=O)c2cncc(C#CCO)c2)c(C(=O)O)c1	64 (≈ 199 µM)
N#Cc1cccc(-c2cnc(C(=O)Nc3ccc(Br)cc3C(=O)O)o2)c1	4 (≈ 9.7 µM)
O=C(Nc1ccc(Br)cc1C(=O)O)c1cccc(Br)n1	64 (≈ 160 µM)
N#Cc1ccc(NC(=O)c2cc(CNCc3ccccc3)on2)c(C(=O)O)c1	2 (≈ 5.31 µM)
Cc1c(S(=O)(=O)N(C)c2ccc(Cl)cc2)csc1C(=O)Nc1ccc(Br)cc1C(=O)O	8 (≈ 14.7 µM)
Cn1c(C(=O)Nc2ccc(C#N)cc2C(=O)O)cc2ccc(NC(=O)N3CCOCC3)cc21	4 (≈ 8.94 µM)
N#Cc1ccc(NC(=O)c2cc3ccccc3n2Cc2ccccc2)c(C(=O)O)c1	8 (≈ 20.2 µM)
COc1ccc(C(=O)Nc2ccc(C#N)cc2C(=O)O)cn1	8 (≈ 26.9 µM)
CCCCCn1c(C(=O)Nc2ccc(Cl)cc2C(=O)O)cc2ccccc21	4 (≈ 10.4 µM)
Cc1nn(-c2ccccc2)nc1C(=O)Nc1ccc(C#N)cc1C(=O)O	4 (≈ 11.5 µM)
N#Cc1ccc(NC(=O)c2cc3cccc(NC(=O)COCc4ccccc4)c3[nH]2)c(C(=O)O)c1	1 (≈ 2.13 µM)
N#Cc1ccc(NC(=O)c2ccc(N3CCCCC3)nc2)c(C(=O)O)c1	8 (≈ 22.8 µM)
Cc1sc(C(=O)Nc2ccc(Br)cc2C(=O)O)cc1S(=O)(=O)Nc1ccc(F)c(Cl)c1	8 (≈ 14.6 µM)
Cc1sc(C(=O)Nc2ccc(C#N)cc2C(=O)O)cc1S(=O)(=O)N1CCCCCC1	8 (≈ 17.9 µM)
O=C(Nc1ccc(Br)cc1C(=O)O)c1cnc2ccccc2n1	8 (≈ 21.5 µM)
Cc1c(S(=O)(=O)NCCc2ccc(N)cc2)csc1C(=O)Nc1ccc(Br)cc1C(=O)O	8 (≈ 14.9 µM)

SMILES	MIC [µg/mL]
N#Cc1ccc(NC(=O)COc2ccccc2-c2cc(C(=O)Nc3ccc(C#N)cc3C(=O)O)no2)c(C(=O)O)c1	128 (≈ 232 µM)
CCN(CC)CCN(CC)S(=O)(=O)c1cc(C(=O)Nc2ccc(C#N)cc2C(=O)O)sc1C	128 (≈ 260 µM)
N#Cc1ccc(NC(=O)c2ccc(SCCCCO)nc2)c(C(=O)O)c1	2 (≈ 5.38 µM)
N#Cc1ccc(NC(=O)c2ccc(Cl)nc2)c(C(=O)O)c1	16 (≈ 53 µM)
N#Cc1ccc(NC(=O)c2ccsc2)c(C(=O)O)c1	> 128
COc1cc2c(cc1OC)CN(S(=O)(=O)c1cc(C(=O)Nc3ccc(C#N)cc3C(=O)O)sc1C)CC2	8 (≈ 14.8 µM)
O=C(O)c1cc(Br)ccc1NC(=O)c1nsc2ccccc12	1 (≈ 2.65 µM)
Cn1cccc1-c1cnc(C(=O)Nc2ccc(C#N)cc2C(=O)O)o1	2 (≈ 5.95 µM)
CC(C)NC(=O)Nc1ccc2cc(C(=O)Nc3ccc(C#N)cc3C(=O)O)n(C)c2c1	0.5 (≈ 1.19 µM)
CS(=O)(=O)c1ccccc1C(=O)Nc1cccc2cc(C(=O)Nc3ccc(C#N)cc3C(=O)O)[nH]c12	4 (≈ 7.96 µM)
CCCn1c(C(=O)Nc2ccc(Cl)cc2C(=O)O)cc2ccccc21	4 (≈ 11.2 µM)
CC(Oc1ccccc1-c1cc(C(=O)Nc2ccc(C#N)cc2C(=O)O)no1)C1CCCCC1 (stereo not shown)	1 (≈ 2.18 µM)
N#Cc1ccc(NC(=O)c2noc3ccc(NCC(O)CO)cc23)c(C(=O)O)c1 (stereo not shown)	2 (≈ 5.05 µM)
CCCn1c(C(=O)Nc2ccc(Br)cc2C(=O)O)cc2ccccc21	4 (≈ 9.97 µM)
O=C(Nc1ccc(Br)cc1C(=O)O)c1cnc(/C=C/C2COC3(CCCCC3)O2)cn1 (stereo not shown)	8 (≈ 16.4 µM)
COCCOCCCSc1ccc(C(=O)Nc2ccc(C#N)cc2C(=O)O)cn1	1 (≈ 2.41 µM)

More lines, in order of falling MIC, values ahead:

MIC [µg/mL]	SMILES
0.5 (≈ 1.14 µM)	CCCS(=O)(=O)Nc1cccc2cc(C(=O)Nc3ccc(C#N)cc3C(=O)O)n(C)c12
0.5 (≈ 1.21 µM)	Cn1c(C(=O)Nc2ccc(C#N)cc2C(=O)O)cc2ccc(Br)c(N)c21
0.5 (≈ 1.25 µM)	CS(=O)(=O)Nc1ccc2onc(C(=O)Nc3ccc(C#N)cc3C(=O)O)c2c1
0.5 (≈ 1.3 µM)	N#Cc1ccc(NC(=O)c2nsc(-c3ccccc3)c2Cl)c(C(=O)O)c1
0.5 (≈ 1.11 µM)	N#Cc1ccc(NC(=O)c2cc3cccc(NC(=O)CCc4ccccc4)c3[nH]2)c(C(=O)O)c1
0.5 (≈ 1.22 µM)	Cn1c(C(=O)Nc2ccc(C#N)cc2C(=O)O)cc2cccc(OC[C@H](O)CO)c21
0.5 (≈ 1.48 µM)	COc1ccc2c(C(=O)Nc3ccc(C#N)cc3C(=O)O)noc2c1
0.5 (≈ 1.1 µM)	O=C(Nc1ccc(Br)cc1C(=O)O)c1cc(-c2ccccc2C(F)(F)F)on1
0.5 (≈ 0.987 µM)	N#Cc1ccc(NC(=O)c2cc3cccc(NC(=O)Cc4ccc(C(F)(F)F)cc4)c3[nH]2)c(C(=O)O)c1
0.25 (≈ 0.623 µM)	N#Cc1ccc(NC(=O)c2cc(-c3ccccc3C(F)(F)F)on2)c(C(=O)O)c1
0.25 (≈ 0.639 µM)	N#Cc1ccc(NC(=O)c2ccc(SCc3ccncc3)nn2)c(C(=O)O)c1
0.25 (≈ 0.512 µM)	N#Cc1ccc(NC(=O)c2cc3cccc(NC(=O)Cc4ccc5ccccc5c4)c3[nH]2)c(C(=O)O)c1
0.125 (≈ 0.294 µM)	Cn1c(C(=O)Nc2ccc(C#N)cc2C(=O)O)cc2cccc(OCc3ccccc3)c21
0.125 (≈ 0.277 µM)	N#Cc1ccc(NC(=O)c2noc3cc(-c4ccccc4C(F)(F)F)ccc23)c(C(=O)O)c1
0.125 (≈ 0.263 µM)	Cn1c(C(=O)Nc2ccc(C#N)cc2C(=O)O)cc2cccc(NS(=O)(=O)CCCCl)c21
0.125 (≈ 0.288 µM)	O=C(Nc1ccc(Br)cc1C(=O)O)c1cc(SCc2ccccc2)on1
0.03 (≈ 0.0707 µM)	CCCCCSc1ccc(C(=O)Nc2ccc(Br)cc2C(=O)O)nn1
